Measured values from ChEMBL document CHEMBL1130924, “Potent inhibition of protein-tyrosine phosphatase-1B using the phosphotyrosyl mimetic fluoro-O-malonyl tyrosine (FOMT)” (Bioorg Med Chem Lett, 1998).
Peptide text beside a SMILES is read from it. * marks the point of attachment. X1 = O=C(O)C(C(=O)O)*

Columns and labels:
[1] = biological target: T1, Tyrosine-protein phosphatase non-receptor type 1 (Homo sapiens, UniProt P18031); assay: Compound was evaluated for the binding affinity against protein-tyrosine phosphatase 1B (PTP1B)
T1 sequence (P18031 whole entry): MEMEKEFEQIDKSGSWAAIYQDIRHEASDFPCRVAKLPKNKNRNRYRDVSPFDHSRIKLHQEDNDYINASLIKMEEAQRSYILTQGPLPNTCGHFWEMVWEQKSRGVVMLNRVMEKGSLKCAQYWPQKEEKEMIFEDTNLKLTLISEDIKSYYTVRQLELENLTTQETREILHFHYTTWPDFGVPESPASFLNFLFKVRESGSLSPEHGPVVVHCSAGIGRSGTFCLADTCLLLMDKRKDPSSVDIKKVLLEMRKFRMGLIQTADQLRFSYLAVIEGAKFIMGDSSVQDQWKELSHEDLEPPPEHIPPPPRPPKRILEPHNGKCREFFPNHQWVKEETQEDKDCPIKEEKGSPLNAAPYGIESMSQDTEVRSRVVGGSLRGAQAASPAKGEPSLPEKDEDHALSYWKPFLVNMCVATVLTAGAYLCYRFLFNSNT

[2] = biological target: T1, Tyrosine-protein phosphatase non-receptor type 1; assay: Compound concentration that cause 50% inhibition of protein-tyrosine phosphatase 1B (PTP1B)

SMILES: CC(C)C[C@@H]1NC(=O)[C@H](Cc2ccc(OC(F)(C(=O)O)C(=O)O)cc2)NC(=O)[C@@H](CCC(=O)O)NC(=O)[C@H](CC(=O)O)NC(=O)[C@@H](C)NC(=O)[C@H](CC(=O)O)NC(=O)CSCC(C(N)=O)NC1=O (some centres undefined)
- Ki [1]: 0.17 µM

SMILES: N[C@@H](Cc1ccc(OC(C(=O)O)C(=O)O)cc1)C(=O)O
- IC50 [2]: 10 µM

SMILES: CC(=O)N[C@@H](CC(=O)O)C(=O)N[C@@H](C)C(=O)N[C@@H](CC(=O)O)C(=O)N[C@@H](CCC(=O)O)C(=O)N[C@@H](Cc1ccc(OC(C(=O)O)C(=O)O)cc1)C(=O)N[C@@H](CC(C)C)C(N)=O (Ac-DADEY(X1)L-NH2)
- Ki [1]: 13 µM

SMILES: N[C@@H](Cc1ccc(OC(F)(C(=O)O)C(=O)O)cc1)C(=O)O [FLUOROMALONYL TYROSINE]
- IC50 [2]: 1 µM
